Source: patent US20250084040A1, “SUBSTITUTED HETEROCYCLES AS c-MYC TARGETING AGENTS” (Northwestern University, priority 2018, published 2025)

Tests used:
NCI 60 cell panel = test: NCI 60 Cell One-Dose Screen; assay type: cell-based, human; details: 1.00E−5 Molar
Procedure: General Description. As of early 2007 all compounds submitted to the NCI 60 Cell screen are tested initially at a single high dose (10^-5 M) in the full NCI 60 cell panel. Only compounds which satisfy pre-determined threshold inhibition criteria in a minimum number of cell lines will progress to the full 5-dose assay. The threshold inhibition criteria for progression to the 5-dose screen was selected to efficiently capture compounds with anti-proliferative activity based on careful analysis of historical DTP screening data. The threshold criteria may be updated as additional data becomes available.
Interpretation of One-Dose Data. The One-dose data will be reported as a mean graph of the percent growth of treated cells and will be similar in appearance to mean graphs from the 5-dose assay. The number reported for the One-dose assay is growth relative to the no-drug control, and relative to the time zero number of cells. This allows detection of both growth inhibition (values between 0 and 100) and lethality (values less than 0). This is the same as for the 5-dose assay, described below. For example, a value of 100 means no growth inhibition. A value of 40 would mean 60% growth inhibition. A value of 0 means no net growth over the course of the experiment. A value of −40 would mean 40% lethality. A value of −100 means all cells are dead. Information from the One-dose mean graph is available for COMPARE analysis.
The human tumor cell lines of the cancer screening panel are grown in RPMI 1640 medium containing 5% fetal bovine serum and 2 mM L-glutamine. For a typical screening experiment, cells are inoculated into 96 well microtiter plates in 100 μL at plating densities ranging from 5,000 to 40,000 cells/well depending on the doubling time of individual cell lines. After cell inoculation, the microtiter plates are incubated at […], 5% CO2, 95% air and 100% relative humidity for 24 h prior to addition of experimental drugs.
After 24 h, two plates of each cell line are fixed in situ with TCA, to represent a measurement of the cell population for each cell line at the time of drug addition (Tz). Experimental drugs are solubilized in dimethyl sulfoxide at 400-fold the desired final maximum test concentration and stored frozen prior to use. At the time of drug addition, an aliquot of frozen concentrate is thawed and diluted to twice the desired final maximum test concentration with complete medium containing 50 µg/ml gentamicin. Additional four, 10-fold or ½ log serial dilutions are made to provide a total of five drug concentrations plus control. Aliquots of 100 μl of these different drug dilutions are added to the appropriate microtiter wells already containing 100 μl of medium, resulting in the required final drug concentrations.
Following drug addition, the plates are incubated for an additional 48 h at 37° C., 5% CO2, 95% air, and 100% relative humidity. For adherent cells, the assay is terminated by the addition of cold TCA. Cells are fixed in situ by the gentle addition of 50 μl of cold 50% (w/v) TCA (final concentration, 10% TCA) and incubated for 60 minutes at 4° C. The supernatant is discarded, and the plates are washed five times with tap water and air dried. Sulforhodamine B (SRB) solution (100 μl) at 0.4% (w/v) in 1% acetic acid is added to each well, and plates are incubated for 10 minutes at room temperature. After staining, unbound dye is removed by washing five times with 1% acetic acid and the plates are air dried. Bound stain is subsequently solubilized with 10 mM trizma base, and the absorbance is read on an automated plate reader at a wavelength of 515 nm. For suspension cells, the methodology is the same except that the assay is terminated by fixing settled cells at the bottom of the wells by gently adding 50 μl of 80% TCA (final concentration, 16% TCA). […]

[1] = In vitro metabolism, mouse liver microsomes; assay type: in vitro ADME; details: % remaining of compound after 60 min treatment with mouse liver microsomes
Procedure: In vitro metabolism of NUCC-176242 and NUCC-176248 were tested using mouse liver microsomes and a mouse S9 fraction. (See FIG. 9).

CC(C)CCOc1ccc(-c2cc(C(F)(F)F)n[nH]2)c(O)c1-c1cncc(C#N)c1 [NSC: D-804956/1]
Growth Percent (NCI 60 cell panel; 786-0 (Renal Cancer)): 17.07% | Growth Percent (NCI 60 cell panel; A498 (Renal Cancer)): −25.54% | Growth Percent (NCI 60 cell panel; A549/ATCC (Non-Small Cell Lung Cancer)): 10.39% | Growth Percent (NCI 60 cell panel; ACHN (Renal Cancer)): 8.84% | Growth Percent (NCI 60 cell panel; BT-549 (Breast Cancer)): 6.56% | Growth Percent (NCI 60 cell panel; CAKI-1 (Renal Cancer)): 9.47% | Growth Percent (NCI 60 cell panel; CCRF-CEM (Leukemia)): 6.67% | Growth Percent (NCI 60 cell panel; COLO 205 (Colon Cancer)): 49.05% | Growth Percent (NCI 60 cell panel; DU-145 (Prostate Cancer)): 17.95% | Growth Percent, Delta (NCI 60 cell panel; Delta of the mean graph): 40.88% | Growth Percent (NCI 60 cell panel; EKVX (Non-Small Cell Lung Cancer)): 3.52% | Growth Percent (NCI 60 cell panel; HCC-2998 (Colon Cancer)): 16.23% | Growth Percent (NCI 60 cell panel; HCT-15 (Colon Cancer)): 11.96% | Growth Percent (NCI 60 cell panel; HCT-116 (Colon Cancer)): 2.41% | Growth Percent (NCI 60 cell panel; HL-60(TB) (Leukemia)): 3.64% | Growth Percent (NCI 60 cell panel; HOP-62 (Non-Small Cell Lung Cancer)): 5.79% | Growth Percent (NCI 60 cell panel; HOP-92 (Non-Small Cell Lung Cancer)): −27.95% | Growth Percent (NCI 60 cell panel; HS 578T (Breast Cancer)): 17.96% | Growth Percent (NCI 60 cell panel; HT29 (Colon Cancer)): 48.91% | Growth Percent (NCI 60 cell panel; IGROV1 (Ovarian Cancer)): 46.89% | Growth Percent (NCI 60 cell panel; KM12 (Colon Cancer)): 7.94% | Growth Percent (NCI 60 cell panel; LOX IMVI (Melanoma)): 5.15% | Growth Percent (NCI 60 cell panel; M14 (Melanoma)): 22.46% | Growth Percent (NCI 60 cell panel; MALME-3M (Melanoma)): −0.80% | Growth Percent (NCI 60 cell panel; MCF7 (Breast Cancer)): 2.95% | Growth Percent (NCI 60 cell panel; MDA-MB-231/ATCC (Breast Cancer)): 1.43% | Growth Percent (NCI 60 cell panel; MDA-MB-435 (Melanoma)): 7.91% | Growth Percent (NCI 60 cell panel; MDA-MB-468 (Breast Cancer)): −26.3% | Growth Percent (NCI 60 cell panel; MOLT-4 (Leukemia)): 22.96% | Growth Percent, Mean (NCI 60 cell panel; Mean over the cell panel): 9.05% | Growth Percent (NCI 60 cell panel; NCI-H23 (Non-Small Cell Lung Cancer)): −0.16% | Growth Percent (NCI 60 cell panel; NCI-H322M (Non-Small Cell Lung Cancer)): 12.44% | Growth Percent (NCI 60 cell panel; NCI-H460 (Non-Small Cell Lung Cancer)): 3.48% | Growth Percent (NCI 60 cell panel; NCI-H522 (Non-Small Cell Lung Cancer)): −6.89% | Growth Percent (NCI 60 cell panel; NCI/ADR-RES (Ovarian Cancer)): 2.45% | Growth Percent (NCI 60 cell panel; OVCAR-3 (Ovarian Cancer)): 2.95% | Growth Percent (NCI 60 cell panel; OVCAR-4 (Ovarian Cancer)): 20.48% | Growth Percent (NCI 60 cell panel; OVCAR-5 (Ovarian Cancer)): 36.89% | Growth Percent (NCI 60 cell panel; OVCAR-8 (Ovarian Cancer)): 12.48% | Growth Percent (NCI 60 cell panel; PC-3 (Prostate Cancer)): 1.74% | Growth Percent (NCI 60 cell panel; RPMI-8226 (Leukemia)): −31.83% | Growth Percent, Range (NCI 60 cell panel; Range over the cell panel): 80.88% | Growth Percent (NCI 60 cell panel; SF-268 (CNS Cancer)): 21.93% | Growth Percent (NCI 60 cell panel; SF-295 (CNS Cancer)): 0.83% | Growth Percent (NCI 60 cell panel; SF-539 (CNS Cancer)): 25.17% | Growth Percent (NCI 60 cell panel; SK-MEL-2 (Melanoma)): −13.82% | Growth Percent (NCI 60 cell panel; SK-MEL-28 (Melanoma)): 33.67% | Growth Percent (NCI 60 cell panel; SK-OV-3 (Ovarian Cancer)): −7.94% | Growth Percent (NCI 60 cell panel; SN12C (Renal Cancer)): 3.81% | Growth Percent (NCI 60 cell panel; SNB-19 (CNS Cancer)): 13.09% | Growth Percent (NCI 60 cell panel; SNB-75 (CNS Cancer)): 30.14% | Growth Percent (NCI 60 cell panel; SR (Leukemia)): 33.69% | Growth Percent (NCI 60 cell panel; SW-620 (Colon Cancer)): 14.25% | Growth Percent (NCI 60 cell panel; T-47D (Breast Cancer)): 2.83% | Growth Percent (NCI 60 cell panel; TK-10 (Renal Cancer)): 11.38% | Growth Percent (NCI 60 cell panel; U251 (CNS Cancer)): 2.85% | Growth Percent (NCI 60 cell panel; UACC-62 (Melanoma)): 17.46% | Growth Percent (NCI 60 cell panel; UACC-257 (Melanoma)): −14.05% | Growth Percent (NCI 60 cell panel; UO-31 (Renal Cancer)): 3.89%

Cn1nc(C(F)(F)F)cc1-c1ccc(OCc2ccc(Cl)cc2)cc1C=O [NUCC-0200976]
MLM % at 60 min [1]: 21.8%

Oc1c(-c2cc(C(F)(F)F)n[nH]2)ccc(OCCN2CCCC2)c1-c1cc(C(F)(F)F)cc(C(F)(F)F)c1 [NUCC-0201032]
MLM % at 60 min [1]: 30.5%

CCCCCCOc1ccc(-c2cc(C(F)(F)F)n[nH]2)c(O)c1-c1cc(C(F)(F)F)cc(C(F)(F)F)c1 [NUCC-0201196]
MLM % at 60 min [1]: 66.6%
